According to US6921766B1, “Blood vessel lipid deposition-preventive agent comprising chymase-inhibitor” (Daiichi Suntory Pharma Co., Ltd., priority 1999, dated 2005):
Entries after “also recorded” stand apart in the source; their conditions may differ.

Experiments:
[1] = molecular target: T1, Human heart chymase (Homo sapiens, UniProt P23946); assay: Inhibitory activity of test compounds to human chymase (Suc-Ala-Ala-Pro-Phe-MCA substrate); type: biochemical; conditions: purified human heart chymase, preincubated 10 min at 30° C., pH 7.5
T1 construct: Human heart chymase was purified according to the method of Urata et al; from tissue; host or cells: human heart
T1 sequence (P23946 22-247): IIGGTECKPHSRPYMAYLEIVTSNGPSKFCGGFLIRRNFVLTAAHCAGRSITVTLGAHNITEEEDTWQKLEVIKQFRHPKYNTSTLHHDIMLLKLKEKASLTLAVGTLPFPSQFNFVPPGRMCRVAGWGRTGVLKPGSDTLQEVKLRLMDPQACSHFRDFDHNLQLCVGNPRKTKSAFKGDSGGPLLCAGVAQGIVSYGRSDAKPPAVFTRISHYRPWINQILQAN
Description: Human heart chymase was purified according to the method of Urata et al. (J. Biol. Chem. 265: 22348, 1990). The inhibitory activity of the compound of the present invention was determined as follows. Purified enzyme was diluted with 0.1 M Tris-HCl buffer (pH 7.5) containing 1 M sodium chloride and 0.01% Triton X-100 to appropriate concentrations. Suc-Ala-Ala-Pro-Phe-MCA (Peptide Institute Inc.) was dissolved in 10 mM dimethyl sulfoxide (hereinafter referred to as DMSO) and diluted 20-fold with 0.1 M Tris-HCl buffer (pH 7.5) containing 1 M sodium chloride and 0.01% Triton X-100 to an appropriate concentration to prepare substrate solution.
5 μl of the test sample in DMSO was added to 75 μl of the enzyme solution and preincubated at 30° C. for 10 minutes. Then, 20 μl of the substrate solution was added to the test sample-enzyme mixture, and incubated at 30° C. Ten minutes later, 50 μl of 30% acetic acid was added to stop the enzymatic reaction, and the amount of AMC formed was determined using a fluorophotometer. At the same time, 5 μl of DMSO in stead of the test sample was added and reacted simultaneously as a control. The inhibitory activity to human chymase was calculated based on the value of the control, and then the inhibition percentage and the 50% inhibition concentration (IC50) were determined.

[2] = human, pH 7.2
Description: 2 μl of 1 mM test sample in DMSO was added to 198 μl of 50% of human plasma solution in a 50 mM sodium phosphate buffer (pH 7.2) and incubated at 30° C. At 0, 5, and 15 minutes, 800 μl of acetonitrile was added to the test sample-plasma mixture, which was mixed and deproteinized. The supernatant obtained by centrifugation (12,000 rpm, one minute) was diluted with the same volume of distilled water, and the intact compound in the solution was determined by HPLC analysis.
The half life (t1/2) of the test sample in the plasma solution was calculated from the recovery at each time point using an exponential regression analysis.

[3] = test system: lipid deposition in the aorta; assay: Aortic lipid deposition model in hamster induced by high-cholesterol diet; type: in vivo, Golden Syrian hamsters; conditions: 100 mg/kg/day orally for 12 weeks
Description: An aorta lipid deposition model was induced by a high-cholesterol diet. A high-cholesterol diet was prepared by adding 0.5% cholesterol and 10% coconut oil (KBT Oriental Co.) to a standard rodent feed containing 5.1% fat and 0.07% cholesterol (KBT oriental Co.). 8-week-old male Golden Syrian hamsters (KBT Oriental Co.) (100-130 g) were given the high-cholesterol diet for 12 weeks to induce lipid deposition in the aorta. A group to which a standard rodent feed was given for 12 weeks was used as the control.
An aortic lipid deposition model was generated as described in Example 3 and used as the high-cholesterol diet group (n=6). A group that received the standard rodent diet for 12 weeks was used as the control group (n=6). […]
The effect on lipid deposition by the chymase no inhibitor was evaluated by harvesting the aorta on week 12 after the start of the high-cholesterol diet and performing a histopathological analysis. […]
Then, the sections were washed with 60% isopropanol and distilled water, and counterstained with hematoxylin for 2 minutes. After washing with 1/4 saturated LiCO3, lipid deposition was evaluated by microscopic observation. Also, the area of the lipid deposition region (the region stained to an orange color with Oil red O) was quantitated on the histological pictures by NIH Image software ver. […]

Structure (SMILES)	IC50 [1]	t1/2 (plasma half life) [2]	lipid deposition area in the aortic cusp region ([3]; FIG. 1, monosodium salt, 100 mg/kg/day)	lipid deposition in the aorta (microscopic examination of the aortic cusp) ([3]; Oil red O staining)
O=C(O)C1Oc2ccc(S(=O)(=O)n3c(=O)[nH]c4cc(Cl)ccc4c3=O)cc2NC1=O (racemic) [Compound 29, (±)-6-[(7-chloro-2,4(1H,3H)-quinazolinedione-3-yl)sulfonyl]-3-oxo-1,4-benzoxadine-2-carboxylic acid]	1700 nM			
CC(C(=O)O)C(=O)Nc1cccc(S(=O)(=O)n2c(=O)[nH]c3cc(Cl)ccc3c2=O)c1 (centres unmarked) [Compound 13, 2-{3-[(7-chloro-2,4(1H,3H)-quinazolinedione-3-yl)sulfonyl]phenylaminocarbonyl}propionic acid]	300 nM	1.62 h		
Nc1cc(S(=O)(=O)n2c(=O)[nH]c3cc(Cl)ccc3c2=O)ccc1C(=O)[O-].[Na+] [Compound 18, 4-[(7-chloro-2,4(1H,3H)-quinazolinedione-3-yl)sulfonyl]anthranilic acid monosodium salt]			decreased; also recorded: significantly suppressed	completely disappeared
